# What was measured:
# E. coli K12 = test: Disc diffusion; assay type: cell-based
# Experimental: (§1) Different concentrations of antimicrobial discs were made by incorporation of defined amount of the compound and were stored in a refrigerator (4° C.). Plates were swabbed in three directions with test bacteria to give uniform growth with 0.5 McFarland inocula. Antimicrobial discs were applied to the plates as soon as possible, but no longer than 15 minutes after inoculation. The plates were incubated at 37° C. for 18 hours. The growth inhibition zones around the disc were measured.
# S. aureus Col (MRSA) = test: Disc diffusion; assay type: cell-based
# Experimental: as §1
# S. aureus 8325-4 = test: Disc diffusion; assay type: cell-based
# Experimental: as §1
# S. pneumoniae ATCC 6301 = test: Disc diffusion; assay type: cell-based
# Experimental: as §1
# B. subtilus ATCC 6051 = test: Disc diffusion; assay type: cell-based
# Experimental: as §1
# P. aeruginosa 4961 = test: Disc diffusion; assay type: cell-based
# Experimental: as §1
# P. aeruginosa 4858 [1] = test: Disc diffusion; assay type: cell-based
# Experimental: as §1
# S. aureus USA300 = test: Disc diffusion; assay type: cell-based
# Experimental: as §1
# [2] = system: E. coli In-house WT (SLR-IBT); test: Disc diffusion; assay type: cell-based
# Experimental: as §1
# P. aeruginosa 4990 = test: Disc diffusion; assay type: cell-based
# Experimental: as §1
# S. aureus (USA300) [3] = test: Minimum Bactericidal Concentration (MBC); assay type: cell-based
# Experimental: (§2) MBC is the lowest concentration of compound required to kill an organism. […] In the case of small colony variants, growth might not occur earlier than 48 hours.
# B. subtilis = test: Minimum Bactericidal Concentration (MBC); assay type: cell-based
# Experimental: as §2
# S. aureus = test: Minimum Bactericidal Concentration (MBC); assay type: cell-based; settings: UV-5; S. Aureus NCTC8325-4
# Experimental: as §2
# P. aeruginosa 4858 [4] = test: Minimum Bactericidal Concentration (MBC); assay type: cell-based
# Experimental: as §2
# S. aureus (Col) = test: Minimum Bactericidal Concentration (MBC); assay type: cell-based
# Experimental: as §2
# S. aureus (8324-5) = test: Minimum Bactericidal Concentration (MBC); assay type: cell-based
# Experimental: as §2
# [5] = system: Staphylococcus aureus USA300
# Experimental: The challenge inoculum included 6.13e4 cfu USA300+3% Hog mucin which causes bacteremia/sepsis within 24-72 h. […] The mice used were 6-8 week old female BALB/c mice in groups of 10. One group of 5 mice was also included to examine the potential toxicity of 3% hog mucin. Endpoint was day 10 post infection, death, or euthanasia Animals displaying severe illness as determined by >30% weight loss, extreme lethargy, or paralysis were euthanized. Observation included daily weight, health checks, and temperatures starting with the initiation of dosing until 10 days post challenge.
# S. aureus (USA300) [6] = test: Minimum Inhibitory Concentration (MIC); assay type: cell-based; settings: for visible growth: Table 3; for growth (OD600): Table 4
# Experimental: The MIC assay is a technique used to determine the lowest concentration of a particular antibiotic needed to inhibit visible growth of bacteria. In this method, two fold serial dilutions of the compound were prepared in broth media. An inoculum of overnight bacterial cultures will be prepared in the same broth medium. The serial dilution tubes will be inoculated with 0.025 ml of undiluted over-night culture (1:100), a 1×10-2 dilution (1:10,000), or a 1×10-4 dilution (1:1,000,000) of bacterial suspension. Results were recorded after 24 hour incubation at 35° C. without shaking by measuring OD600. The MIC is determined by the lowest concentration of compound where no growth is visible.
structure (smiles),measurement,setting,value
"[N-]=[N+]=Nc1ccc(NCCCCCCN2C[C@H](O)[C@@H](O)[C@H](O)[C@H]2CO)c([N+](=O)[O-])c1 [UV-5, N—(N-{4′-azido-2′-nitrophenyl}-6-aminohexyl)deoxynojirimycin]",Inhibition zone diameter,E. coli K12; UV-5 160 ug disc,12 mm
same,Inhibition zone diameter,S. aureus Col (MRSA); UV-5 160 ug disc,16 mm
same,Inhibition zone diameter,S. aureus 8325-4; UV-5 160 ug disc,16 mm
same,Inhibition zone diameter,S. pneumoniae ATCC 6301; UV-5 160 ug disc,17 mm
same,Inhibition zone diameter,B. subtilus ATCC 6051; UV-5 160 ug disc,18 mm
same,Inhibition zone diameter,P. aeruginosa 4961; UV-5 160 ug disc,14 mm
same,Inhibition zone diameter,P. aeruginosa 4858 [1]; UV-5 160 ug disc,6 mm
same,Inhibition zone diameter,S. aureus USA300; UV-5 160 ug disc,16 mm
same,Inhibition zone diameter,[2]; UV-5 160 ug disc,15 mm
same,Inhibition zone diameter,P. aeruginosa 4990; UV-5 160 ug disc,6 mm
same,MBC,S. aureus (USA300) [3]; UV-5,20000 µg/mL
same,growth after re-inoculation on BHI agar,S. aureus (USA300) [3]; UV-5 0.16 mg/ml,+
same,growth after re-inoculation on BHI agar,S. aureus (USA300) [3]; UV-5 0.3 mg/ml,+
same,growth after re-inoculation on BHI agar,S. aureus (USA300) [3]; UV-5 0.62 mg/ml,+
same,growth after re-inoculation on BHI agar,S. aureus (USA300) [3]; UV-5 2.5 mg/ml,+
same,growth after re-inoculation on BHI agar,S. aureus (USA300) [3]; UV-5 5 mg/ml,+
same,growth after re-inoculation on BHI agar,S. aureus (USA300) [3]; UV-5 10 mg/ml,+
same,growth after re-inoculation on BHI agar,S. aureus (USA300) [3]; UV-5 20 mg/ml,−
same,MBC,B. subtilis; UV-5,2500 µg/mL
same,growth after re-inoculation on BHI agar,B. subtilis; UV-5 0.16 mg/ml,+
same,growth after re-inoculation on BHI agar,B. subtilis; UV-5 0.3 mg/ml,+
same,growth after re-inoculation on BHI agar,B. subtilis; UV-5 0.62 mg/ml,+
same,growth after re-inoculation on BHI agar,B. subtilis; UV-5 10 mg/ml,−
same,growth after re-inoculation on BHI agar,B. subtilis; UV-5 20 mg/ml,−
same,MBC,S. aureus,10000 µg/mL
same,MBC,P. aeruginosa 4858 [4]; UV-5,5000 µg/mL
same,growth after re-inoculation on BHI agar,P. aeruginosa 4858 [4]; UV-5 0.16 mg/ml,+
same,growth after re-inoculation on BHI agar,P. aeruginosa 4858 [4]; UV-5 0.3 mg/ml,+
same,growth after re-inoculation on BHI agar,P. aeruginosa 4858 [4]; UV-5 0.62 mg/ml,+
same,growth after re-inoculation on BHI agar,P. aeruginosa 4858 [4]; UV-5 2.5 mg/ml,+
same,growth after re-inoculation on BHI agar,P. aeruginosa 4858 [4]; UV-5 5 mg/ml,−
same,growth after re-inoculation on BHI agar,P. aeruginosa 4858 [4]; UV-5 10 mg/ml,−
same,growth after re-inoculation on BHI agar,P. aeruginosa 4858 [4]; UV-5 20 mg/ml,−
same,growth after re-inoculation on BHI agar,S. aureus (Col); UV-5 0.16 mg/ml,+
same,growth after re-inoculation on BHI agar,S. aureus (Col); UV-5 0.3 mg/ml,+
same,growth after re-inoculation on BHI agar,S. aureus (Col); UV-5 0.62 mg/ml,+
same,growth after re-inoculation on BHI agar,S. aureus (Col); UV-5 10 mg/ml,−
same,growth after re-inoculation on BHI agar,S. aureus (Col); UV-5 20 mg/ml,−
same,MBC,"S. aureus (Col); UV-5, S. aureus COL MRSA",2500 µg/mL
same,growth after re-inoculation on BHI agar,S. aureus (8324-5); UV-5 0.16 mg/ml,+
same,growth after re-inoculation on BHI agar,S. aureus (8324-5); UV-5 0.3 mg/ml,+
same,growth after re-inoculation on BHI agar,S. aureus (8324-5); UV-5 0.62 mg/ml,+
same,growth after re-inoculation on BHI agar,S. aureus (8324-5); UV-5 2.5 mg/ml,+
same,growth after re-inoculation on BHI agar,S. aureus (8324-5); UV-5 5 mg/ml,+
same,growth after re-inoculation on BHI agar,S. aureus (8324-5); UV-5 10 mg/ml,−
same,growth after re-inoculation on BHI agar,S. aureus (8324-5); UV-5 20 mg/ml,−
same,significance of survival increase vs water,[5]; 100 mg/kg UV-5 BID,not a statistically significant increase in survival
same,survival,"[5]; 100 mg/kg UV-5 orally BID for 10 days, from 3 days before IP challenge, water control 30%",70%
same,toxicity at the dose/regimen used,"[5]; 100 mg/kg UV-5 orally BID, mice",some toxicity was observed
"CC[C@H]1OC(=O)[C@H](C)[C@@H](O[C@H]2C[C@@](C)(OC)[C@@H](O)[C@H](C)O2)[C@H](C)[C@@H](O[C@@H]2O[C@H](C)C[C@H](N(C)C)[C@H]2O)[C@](C)(O)C[C@@H](C)C(=O)[C@H](C)[C@@H](O)[C@]1(C)O [Erythromycin, reference compound]",zone of inhibition at 10 µg/disc,"E. coli K12; Escherichia coli, K12, read-out: Inhibition zone diameter",20 mm
same,zone of inhibition at 10 µg/disc,"S. aureus Col (MRSA); Staphylococcus aureus, MRSA, read-out: Inhibition zone diameter",42 mm
same,zone of inhibition at 10 µg/disc,"S. aureus 8325-4; Staphylococcus aureus, 83254, read-out: Inhibition zone diameter",35 mm
same,zone of inhibition at 10 µg/disc,"S. pneumoniae ATCC 6301; Streptococcus pneumoniae, ATCC6301, read-out: Inhibition zone diameter",38 mm
same,zone of inhibition at 10 µg/disc,B. subtilus ATCC 6051; read-out: Inhibition zone diameter,35 mm
same,zone of inhibition at 10 µg/disc,"P. aeruginosa 4961; Pseudomonas aeruginosa, 4961, read-out: Inhibition zone diameter",18 mm
same,zone of inhibition at 10 µg/disc,"P. aeruginosa 4858 [1]; Pseudomonas aeruginosa, 4858, read-out: Inhibition zone diameter",8 mm
same,zone of inhibition at 10 µg/disc,"S. aureus USA300; Staphylococcus aureus, USA300, read-out: Inhibition zone diameter",15 mm
same,zone of inhibition at 10 µg/disc,"[2]; Escherichia coli, read-out: Inhibition zone diameter",15 mm
same,zone of inhibition at 10 µg/disc,"P. aeruginosa 4990; Pseudomonas aeruginosa, 4990, read-out: Inhibition zone diameter",20 mm
same,visible growth,S. aureus (USA300) [6]; Erythromycin 0.20 ug/ml,+
same,growth (OD600),S. aureus (USA300) [6]; Erythromycin 0.20 ug/ml,+ (+ OD600 <0.05)
same,visible growth,S. aureus (USA300) [6]; Erythromycin 0.39 ug/ml,+
same,growth (OD600),S. aureus (USA300) [6]; Erythromycin 0.39 ug/ml,+ (+ OD600 <0.05)
same,visible growth,S. aureus (USA300) [6]; Erythromycin 0.78 ug/ml,+
same,growth (OD600),S. aureus (USA300) [6]; Erythromycin 0.78 ug/ml,+ (+ OD600 <0.05)
same,visible growth,S. aureus (USA300) [6]; Erythromycin 1.56 ug/ml,+
same,growth (OD600),S. aureus (USA300) [6]; Erythromycin 1.56 ug/ml,+ (+ OD600 <0.05)
same,visible growth,S. aureus (USA300) [6]; Erythromycin 3.13 ug/ml,+
same,growth (OD600),S. aureus (USA300) [6]; Erythromycin 3.13 ug/ml,+ (+ OD600 <0.05)
same,visible growth,S. aureus (USA300) [6]; Erythromycin 6.25 ug/ml,+
same,growth (OD600),S. aureus (USA300) [6]; Erythromycin 6.25 ug/ml,+ (+ OD600 <0.05)
same,visible growth,S. aureus (USA300) [6]; Erythromycin 25.00 ug/ml,−
same,growth (OD600),S. aureus (USA300) [6]; Erythromycin 25.00 ug/ml,− (− OD600 >0.05)
same,visible growth,S. aureus (USA300) [6]; Erythromycin 50 ug/ml,−
same,growth (OD600),S. aureus (USA300) [6]; Erythromycin 50 ug/ml,− (− OD600 >0.05)
same,visible growth,S. aureus (USA300) [6]; Erythromycin 100 ug/ml,−
same,growth (OD600),S. aureus (USA300) [6]; Erythromycin 100 ug/ml,− (− OD600 >0.05)
